Test results: patent US20260308158A1, “TARGETING RNAS ASSOCIATED WITH TAUOPATHIES WITH SMALL MOLECULES” (University of Florida Research Foundation, Incorporated, priority 2023, published 2026)

Columns and labels:
Assay type in all cases: cell-based
[1] = tested on: WT I17T MAPT mini-gene (exon 10 splicing); assay: 4R/3R MAPT mRNA by RT-qPCR, HeLa cells transfected with WT I17T mini-gene; conditions: ASO 0.5 μM
Procedure: (§1) RNA Isolation and Real-Time Quantitative PCR (RT-qPCR). HeLa cells were treated as described in the Luciferase Reporter assay to Study Exon 10 Alternative Splicing. LAN5 cells were seeded in 12-well plates at 0.2×10^6 cells per well, treated with compound or ASO, and incubated for 48 h. Compound stocks prepared in DMSO and ASO stocks prepared in water were diluted in growth medium and added to cells. Total RNA was extracted from cells and analyzed via RT-qPCR to determine levels of 3R and 4R tau mRNA. In brief, the cells were washed with 1×DPBS and then lysed in the well using 300 μL of Lysis Buffer provided in a Quick-RNA MiniPrep kit (Zymo Research), which was used to extract total RNA per the manufacturer's protocol including the on-column DNase I digestion. The concentration of total RNA was measured by NanoDrop 2000 (Thermo Fisher Scientific). Only samples with OD260/OD280>1.8 were carried forward for analysis. Reverse transcription (RT) was carried out on 200 ng of total RNA using a qScript cDNA synthesis kit (QuantaBio) in a total volume of 10 μL according to the manufacturer's protocol. An Applied Biosystems QS5 384-well PCR system was used to complete qPCR reactions with Power SYBR Green Master Mix (Life Technologies), 600 nM each primer (Table S3), 20 ng of cDNA (1 μL of the RT reaction), in a total volume of 33 μL. Technical triplicates (10 μL each) were aliquoted into 384-well qPCR plates (Applied biosystems, 4483285). Subsequent qPCR analysis was performed using an Applied Biosystems QS5 384-well PCR system (software v.1.3.0). 4R/3R ratio were analyzed using ΔΔCt method using Equation 2: […]
(§2) where ΔCt 4R or ΔCt 3R is the difference between the Ct values for the 4R or 3R MAPT mRNA and a housekeeping gene (18S rRNA) in total RNA from cells.

[2] = tested on: DDPAC I17T MAPT mini-gene (exon 10 splicing); assay: 4R/3R MAPT mRNA by RT-qPCR, HeLa cells transfected with DDPAC I17T mini-gene; conditions: ASO 0.5 μM
Procedure: as §1, §2

[3] = tested on: MAPT exon 10 splicing in LAN5 cells; assay: 4R/3R endogenous MAPT mRNA by RT-qPCR in LAN5 neuroblastoma cells; conditions: ASO; all cell lines of FIGS. 12A-12C (LAN5, HeLa mini-genes, htau primary neurons)
Procedure: as §1, §2

scrambled ASO: scrambled ASO 5′-CTGTCTGACGTTCTTTGT-3′ (SEQ ID NO: 2), negative control (chemistry not given here) [reference compound]
effect on 4R/3R ratio [1]: not scrambled ASO altered the 4R/3R ratio
effect on 4R/3R ratio [2]: not scrambled ASO altered the 4R/3R ratio
PSI10 in all cell lines [3]: not scrambled ASO was also downregulated
